Assay results published in patent US20030187267A1, “Novel 1,2,3,4-tetrahydroisoquinoline, their preparation method and their use as fungicides” (priority 2000, published 2003).

Tested on: Candida Albicans 44858
Test: Antifungal activity in mice infected intravenously with Candida Albicans 44858 (dead mice counted)
Format: in vivo
Settings: female mice, 106 CFU per mouse into the tail vein
Method: Antifungal activity of the product of Example 1 or product P.
Female mice were used weighing 18 to 22 g. A quantity of Candida Albicans 44858 at a rate of 10^6 CFU per mouse (CFU: colony forming unit) is administered into the vein of the tail. The mice are separated into 5 batches of 5 mice and they are treated as follows:
group 1: the mice are treated with product P 25 mg/kg by oral route
group 2: the mice are treated with product P by intraperitoneal route at a rate of 25 mg/kg
group 3: the mice are treated with fluconazole (25 mg/kg by oral route).
group 4: the mice are treated with fluconazole (25 mg/kg by intraperitoneal route).
group 5: the mice receive no antifungal treatment.
For a period of 22 days, the dead mice are counted.

## CCC(C)n1ncn(-c2ccc(/C=C/CN3CCc4cc(OC[C@H]5CO[C@](Cn6ccnc6)(c6ccc(Cl)cc6Cl)O5)ccc4C3)cc2)c1=O (relative stereo) [Example 1, 2,4-dihydro-4-[4-[3-[6-[[(cis)-2-(2,4-dichlorophenyl)-2-(1H-imidazol-1-ylmethyl)-1,3-dioxolan-4-yl]-methoxy]-1,2,3,4-tetrahydro-2-isoquinolinyl]-1(E)-propenyl]-phenyl]-2-(1-methylpropyl)-3H-1,2,4-triazol-3-one.]
25 mg/kg by intraperitoneal route 1 hour after infection
  Antifungal activity (dead mice counted for a period of 22 days): excellent activity
25 mg/kg by oral route 1 hour after infection
  Antifungal activity (dead mice counted for a period of 22 days): excellent activity
